Experimental data: patent US9115147B2, “Tricyclic derivatives and their pharmaceutical use and compositions” (Cephalon, Inc., priority 2009, dated 2015)
Where two headings read alike, the source gives them in different places.

Molecular target: T1, human 5-HT6 receptor (Homo sapiens, UniProt P50406)
T1 construct: host or cells: CHO-K1 cells, stably transfected; membranes prepared in house
Assay: Human 5-HT6 Receptor Binding Assay ([3H]LSD, scintillation beads)
Details: membranes of CHO-K1 cells with recombinant human 5-HT6 receptor, 4 nM [3H]LSD
Procedure: Human 5-HT6 Receptor Binding Assay
Membranes were prepared from CHO-K1 cells stably transfected with the human 5-HT6 receptor (Euroscreen; ES-316-C). The cells were grown in Gibco Advanced DMEM-F12 (Cat#12634010) containing 2% dialyzed FBS (Hyclone Cat#SH30079.03). The cells were harvested in phosphate buffered saline (PBS) containing 0.1 mM EDTA and pelleted by centrifugation (1000×g), the supernatant was discarded and the pellets were stored at −80° C. prior to membrane preparation. Membranes were prepared as previously described (J Bio Chem. 1992, 267 (14) 9844-51). Briefly, frozen cell pellet was resuspended in a lysis buffer containing 5 mM Tris-HCl (pH 7.5), 5 mM EDTA and 1 complete EDTA-free protease inhibitor tablet (Roche Applied Science, Indianapolis, Ind.) per 50 mL buffer, and homogenized with a tissue homogenizer. The cell lysate was then centrifuged at 40,000×g for 30 min at 4° C. to collect the membranes. The membrane pellets were washed in membrane buffer (50 mM Tris-HCl (pH 7.5), 0.6 mM EDTA, 5 mM MgCl2, 1 complete EDTA-free protease inhibitor tablet per 50 mL buffer) using a tissue homogenizer. The membranes were centrifuged at 40,000×g for 30 min at 4° C. and the pellets were resuspended in membrane buffer containing 250 mM sucrose, and protein concentration was determined using the Coomassie Plus kit (Pierce Biotechnology, Rockford, Ill.).
Membranes prepared from cells expressing recombinant human 5-HT6 receptor (h5-HT6) were resuspended in assay buffer containing 50 mM Tris HCl, (pH7.4), 4 mM CaCl2, 10 μg/mL saponin, and 0.1% (w/v) ascorbic acid. Membranes were preincubated using 1.75 μg membrane protein and 0.25 mg FlashBlue scintillation beads (PerkinElmer catalogue #FB001) per well at 4° C. for 30 min. […] Test compounds or assay controls for total and non-specific binding were diluted in DMSO as 100× solutions and serially diluted by half log concentrations on a Perkin Elmer JANUS Automated Workstation. Serotonin (10 μM final concentration) was used to determine non-specific binding in the assay. Plates were read using the Microbeta Trilux 1450 LSC and luminescence counter. Data were analyzed by nonlinear […] using the dose-response equation (variable slope) to calculate IC50 in XLfit4 (ID Business Solutions Inc.): y=(Bottom+((Top−Bottom)/(1+((IC50/x)^Hill slope))))
Ki value was then calculated according to the Cheng-Prusoff method using the equation below (Cheng and Prusoff, 1973): Ki, app=IC50/(1+([radioligand]/Kd))

[1] = Cheng-Prusoff, read-out: Human 5-HT6 Ki app

T1 sequence (P50406 whole entry): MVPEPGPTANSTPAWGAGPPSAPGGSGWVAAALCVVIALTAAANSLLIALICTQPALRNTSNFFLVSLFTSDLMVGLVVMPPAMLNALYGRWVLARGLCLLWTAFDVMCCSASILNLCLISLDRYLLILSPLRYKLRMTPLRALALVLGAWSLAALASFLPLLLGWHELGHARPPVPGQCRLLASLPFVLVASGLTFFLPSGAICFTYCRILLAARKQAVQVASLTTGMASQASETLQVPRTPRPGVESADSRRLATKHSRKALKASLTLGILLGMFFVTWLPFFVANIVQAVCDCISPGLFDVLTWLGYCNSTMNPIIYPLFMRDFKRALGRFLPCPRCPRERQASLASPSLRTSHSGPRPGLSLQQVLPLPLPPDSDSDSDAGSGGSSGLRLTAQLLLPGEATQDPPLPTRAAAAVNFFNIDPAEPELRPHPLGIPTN

SMILES | Ki [1] [µM] | Ki (actual data, read-out: Human 5-HT6 Ki) [µM]
CC(C)N1CCC2c3ccc(S(=O)(=O)c4ccccc4)cc3OCC21 (single isomer, unassigned) [Example 58, 7-(phenylsulfonyl)-3-(propan-2-yl)-1,2,3,3a,4,9b-hexahydrochromeno[3,4-b]pyrrole] | > 1 | –
O=S(=O)(c1ccccc1)c1ccc2c(c1)OCC1C2CCN1C1CCC1 (single isomer, unassigned) [Example 60, 3-cyclobutyl-7-(phenylsulfonyl)-1,2,3,3a,4,9b-hexahydrochromeno[3,4-b]pyrrole] | > 1 | –
O=S(=O)(c1ccccc1)c1ccc2c(c1)OCC1C2CCN1C1CCCC1 (single isomer, unassigned) [Example 62, 3-cyclopentyl-7-(phenylsulfonyl)-1,2,3,3a,4,9b-hexahydrochromeno[3,4-b]pyrrole] | > 1 | –
O=S(=O)(c1ccccc1)c1ccc2c(c1)OCC1C2CCN1C1CCCCC1 (single isomer, unassigned) [Example 64, 3-cyclohexyl-7-(phenylsulfonyl)-1,2,3,3a,4,9b-hexahydrochromeno[3,4-b]pyrrole] | > 1 | –
O=S(=O)(c1ccccc1)c1ccc2c(c1)OCC1C2CCN1C1CCOC1 (single isomer, unassigned) [Example 66, 7-(phenylsulfonyl)-3-(tetrahydrofuran-3-yl)-1,2,3,3a,4,9b-hexahydrochromeno[3,4-b]pyrrole] | > 1 | –
O=S(=O)(c1ccccc1)c1ccc2c(c1)OCC1C2CCN1C1CCOCC1 (single isomer, unassigned) [Example 69, 7-(phenylsulfonyl)-3-(tetrahydro-2H-pyran-4-yl)-1,2,3,3a,4,9b-hexahydrochromeno[3,4-b]pyrrole] | > 1 | –
O=S(=O)(c1ccccc1)c1ccc2c(c1)OCC1C2CCN1CC1CCCC1 (single isomer, unassigned) [Example 71, 3-(cyclopentylmethyl)-7-(phenylsulfonyl)-1,2,3,3a,4,9b-hexahydrochromeno[3,4-b]pyrrole] | > 1 | –
O=S(=O)(c1ccccc1)c1ccc2c(c1)OCC1C2CCN1CC1CC1 (single isomer, unassigned) [Example 72, 3-(cyclopropylmethyl)-7-(phenylsulfonyl)-1,2,3,3a,4,9b-hexahydrochromeno[3,4-b]pyrrole] | > 1 | –
COc1cncc(S(=O)(=O)c2ccc3c(c2)OCC2C3CCN2C2CCC2)c1 (single isomer, unassigned) [Example 74, 3-cyclobutyl-7-[(5-methoxypyridin-3-yl)sulfonyl]-1,2,3,3a,4,9b-hexahydrochromeno[3,4-b]pyrrole] | > 1 | –
O=S(=O)(c1cncc(F)c1)c1ccc2c(c1)OCC1C2CCN1C1CCC1 (single isomer, unassigned) [Example 75, 3-cyclobutyl-7-[(5-fluoropyridin-3-yl)sulfonyl]-1,2,3,3a,4,9b-hexahydrochromeno[3,4-b]pyrrole] | > 1 | –
O=S(=O)(c1ccccc1)c1ccc2c(c1)OCC1C2CCN1CC(F)F (single isomer, unassigned) [Example 77, 3-(2,2-difluoroethyl)-7-(phenylsulfonyl)-1,2,3,3a,4,9b-hexahydrochromeno[3,4-b]pyrrole] | > 1 | –
O=S(=O)(c1cncc(Br)c1)c1ccc2c(c1)OCC1C2CCN1C1CCC1 (single isomer, unassigned) [Example 78, 7-[(5-bromopyridin-3-yl)sulfonyl]-3-cyclobutyl-1,2,3,3a,4,9b-hexahydrochromeno[3,4-b]pyrrole] | > 1 | –
COc1cncc(S(=O)(=O)c2ccc3c(c2)OCC2C3CCN2C2CCC2)c1 (single isomer, unassigned) [Example 79, 3-cyclobutyl-7-[(5-methoxypyridin-3-yl)sulfonyl]-1,2,3,3a,4,9b-hexahydrochromeno[3,4-b]pyrrole] | > 1 | –
O=S(=O)(c1cncc(F)c1)c1ccc2c(c1)OCC1C2CCN1C1CCC1 (single isomer, unassigned) [Example 80, 3-cyclobutyl-7-[(5-fluoropyridin-3-yl)sulfonyl]-1,2,3,3a,4,9b-hexahydrochromeno[3,4-b]pyrrole] | > 1 | –

The remaining lines, values ahead:

Ki [1] [µM] | Ki (actual data, read-out: Human 5-HT6 Ki) [µM] | SMILES
< 0.5 | – | O=S(=O)(c1ccccc1)c1ccc2c(c1)OCC1NCCC21 (single isomer, unassigned) [Example 55, 7-(phenylsulfonyl)-1,2,3,3a,4,9b-hexahydrochromeno[3,4-b]pyrrole]
0.5 to 1 | 0.504 | CC(C)N1CCC2c3ccc(S(=O)(=O)c4ccccc4)cc3OCC21 (single isomer, unassigned) [Example 57, 7-(phenylsulfonyl)-3-(propan-2-yl)-1,2,3,3a,4,9b-hexahydrochromeno[3,4-b]pyrrole]
0.5 to 1 | – | O=S(=O)(c1ccccc1)c1ccc2c(c1)OCC1C2CCN1C1CCC1 (single isomer, unassigned) [Example 59, 3-cyclobutyl-7-(phenylsulfonyl)-1,2,3,3a,4,9b-hexahydrochromeno[3,4-b]pyrrole]
< 0.5 | – | O=S(=O)(c1ccccc1)c1ccc2c(c1)OCC1C2CCN1C1CCCC1 (single isomer, unassigned) [Example 61, 3-cyclopentyl-7-(phenylsulfonyl)-1,2,3,3a,4,9b-hexahydrochromeno[3,4-b]pyrrole]
< 0.5 | – | O=S(=O)(c1ccccc1)c1ccc2c(c1)OCC1C2CCN1C1CCCCC1 (single isomer, unassigned) [Example 63, 3-cyclohexyl-7-(phenylsulfonyl)-1,2,3,3a,4,9b-hexahydrochromeno[3,4-b]pyrrole]
0.5 to 1 | – | O=S(=O)(c1ccccc1)c1ccc2c(c1)OCC1C2CCN1C1CCOC1 (single isomer, unassigned) [Example 65, 7-(phenylsulfonyl)-3-(tetrahydrofuran-3-yl)-1,2,3,3a,4,9b-hexahydrochromeno[3,4-b]pyrrole]
< 0.5 | – | O=S(=O)(c1ccccc1)c1ccc2c(c1)OCC1C2CCN1CC(F)F (single isomer, unassigned) [Example 67, 3-(2,2-difluoroethyl)-7-(phenylsulfonyl)-1,2,3,3a,4,9b-hexahydrochromeno[3,4-b]pyrrole]
< 0.5 | – | O=S(=O)(c1ccccc1)c1ccc2c(c1)OCC1C2CCN1C1CCOCC1 (single isomer, unassigned) [Example 68, 7-(phenylsulfonyl)-3-(tetrahydro-2H-pyran-4-yl)-1,2,3,3a,4,9b-hexahydrochromeno[3,4-b]pyrrole]
< 0.5 | – | O=S(=O)(c1ccccc1)c1ccc2c(c1)OCC1C2CCN1CC1CCCC1 (single isomer, unassigned) [Example 70, 3-(cyclopentylmethyl)-7-(phenylsulfonyl)-1,2,3,3a,4,9b-hexahydrochromeno[3,4-b]pyrrole]
0.5 to 1 | – | O=S(=O)(c1cncc(Br)c1)c1ccc2c(c1)OCC1C2CCN1C1CCC1 (single isomer, unassigned) [Example 73, 7-[(5-bromopyridin-3-yl)sulfonyl]-3-cyclobutyl-1,2,3,3a,4,9b-hexahydrochromeno[3,4-b]pyrrole]
< 0.5 | – | O=S(=O)(c1cncc(Cl)c1)c1ccc2c(c1)OCC1C2CCN1C1CCC1 (single isomer, unassigned) [Example 76, 7-[(5-chloropyridin-3-yl)sulfonyl]-3-cyclobutyl-1,2,3,3a,4,9b-hexahydrochromeno[3,4-b]pyrrole]
